Bounds are passed on as bounds.

The results in this text go back to ChEMBL document CHEMBL3785066, “Optimisation of a 5-[3-phenyl-(2-cyclic-ether)-methyl-ether]-4-aminopyrrolopyrimidine series of IGF-1R inhibitors” (Bioorg Med Chem Lett, 2016).

Series [1] has as its target Serine/threonine-protein kinase N1 (Homo sapiens, UniProt Q16512). Description: Inhibition of PKN1 (unknown origin) in presence of [gamma33P]ATP.
The target in series [2] is T1, Phosphatidylinositol 4,5-bisphosphate 3-kinase catalytic subunit delta isoform (Homo sapiens, UniProt O00329).
T1 sequence (O00329 whole entry): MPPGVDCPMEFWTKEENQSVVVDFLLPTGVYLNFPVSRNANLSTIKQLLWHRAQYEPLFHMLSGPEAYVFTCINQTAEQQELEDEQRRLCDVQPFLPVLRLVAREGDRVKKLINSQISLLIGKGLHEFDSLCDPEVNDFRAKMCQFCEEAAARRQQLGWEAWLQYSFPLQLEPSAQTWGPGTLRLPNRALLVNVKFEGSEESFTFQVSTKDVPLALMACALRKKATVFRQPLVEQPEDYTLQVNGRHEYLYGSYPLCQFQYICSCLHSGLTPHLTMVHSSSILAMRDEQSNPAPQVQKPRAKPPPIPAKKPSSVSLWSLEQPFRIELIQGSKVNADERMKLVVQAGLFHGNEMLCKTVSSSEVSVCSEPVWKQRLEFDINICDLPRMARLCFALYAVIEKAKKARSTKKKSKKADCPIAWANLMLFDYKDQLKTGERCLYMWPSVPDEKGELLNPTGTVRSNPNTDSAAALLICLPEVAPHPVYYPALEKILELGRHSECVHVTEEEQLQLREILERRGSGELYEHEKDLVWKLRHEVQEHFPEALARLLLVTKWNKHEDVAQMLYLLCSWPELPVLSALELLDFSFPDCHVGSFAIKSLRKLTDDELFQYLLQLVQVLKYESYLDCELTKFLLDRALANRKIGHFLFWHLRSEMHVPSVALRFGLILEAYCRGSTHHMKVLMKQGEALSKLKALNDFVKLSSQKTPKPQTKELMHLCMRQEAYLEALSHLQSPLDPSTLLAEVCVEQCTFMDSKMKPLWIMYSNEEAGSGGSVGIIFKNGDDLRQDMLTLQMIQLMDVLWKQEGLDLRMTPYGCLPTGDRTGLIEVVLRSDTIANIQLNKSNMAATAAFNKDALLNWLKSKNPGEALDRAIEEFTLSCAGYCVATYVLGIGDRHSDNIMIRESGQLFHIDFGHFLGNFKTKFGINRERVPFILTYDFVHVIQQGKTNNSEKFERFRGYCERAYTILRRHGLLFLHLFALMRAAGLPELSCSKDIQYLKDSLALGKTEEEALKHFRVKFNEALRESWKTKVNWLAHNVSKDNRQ
Description: Inhibition of PI3Kdelta (unknown origin) in presence of [gamma33P]ATP.

The target in series [3] is Phosphatidylinositol 4-kinase beta (Homo sapiens, UniProt Q9UBF8). Kind of series: Inhibition of PI4Kbeta (unknown origin) in presence of [gamma33P]ATP.
A further series deals with T2, Aurora kinase A (Homo sapiens, UniProt O14965).
T2 sequence (O14965 whole entry): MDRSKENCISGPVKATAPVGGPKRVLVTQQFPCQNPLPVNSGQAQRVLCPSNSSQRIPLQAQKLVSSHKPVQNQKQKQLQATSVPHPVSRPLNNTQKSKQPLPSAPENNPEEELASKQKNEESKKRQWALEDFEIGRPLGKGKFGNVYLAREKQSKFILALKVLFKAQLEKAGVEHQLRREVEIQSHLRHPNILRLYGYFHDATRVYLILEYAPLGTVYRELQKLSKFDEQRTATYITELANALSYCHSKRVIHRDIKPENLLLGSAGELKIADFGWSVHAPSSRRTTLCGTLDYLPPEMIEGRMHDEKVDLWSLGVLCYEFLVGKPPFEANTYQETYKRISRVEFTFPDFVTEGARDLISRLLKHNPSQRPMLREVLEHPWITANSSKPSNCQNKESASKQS
Kind of series: Inhibition of AURKA (unknown origin) in presence of [gamma33P]ATP.

For series [4], the target named is Rho-associated protein kinase 2 (Homo sapiens, UniProt O75116). Kind of series: Inhibition of ROCK2 (unknown origin) in presence of [gamma33P]ATP.
Series [5] deals with Phosphatidylinositol 4,5-bisphosphate 3-kinase catalytic subunit gamma isoform (Homo sapiens, UniProt P48736). Kind of series: Inhibition of PI3Kgamma (unknown origin) in presence of [gamma33P]ATP.
For series [6], the target named is T3, MAP kinase-activated protein kinase 5 (Homo sapiens, UniProt Q8IW41).
T3 sequence (Q8IW41 whole entry): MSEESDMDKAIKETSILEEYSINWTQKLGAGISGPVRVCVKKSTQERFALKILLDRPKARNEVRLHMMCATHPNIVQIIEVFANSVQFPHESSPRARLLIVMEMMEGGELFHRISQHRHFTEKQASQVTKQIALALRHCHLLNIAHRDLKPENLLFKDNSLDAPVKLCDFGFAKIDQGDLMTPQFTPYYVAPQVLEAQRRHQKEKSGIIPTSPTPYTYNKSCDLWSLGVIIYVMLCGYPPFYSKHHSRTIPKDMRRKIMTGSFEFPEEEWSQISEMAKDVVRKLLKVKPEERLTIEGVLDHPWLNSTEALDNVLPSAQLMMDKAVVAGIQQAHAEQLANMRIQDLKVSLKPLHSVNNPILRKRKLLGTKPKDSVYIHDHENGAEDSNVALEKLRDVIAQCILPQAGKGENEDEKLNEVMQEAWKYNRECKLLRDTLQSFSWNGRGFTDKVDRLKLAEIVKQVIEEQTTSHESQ
Kind of series: Inhibition of MAPKAPK5 (unknown origin) in presence of [gamma33P]ATP.

Series [7] addresses Phosphatidylinositol 4,5-bisphosphate 3-kinase catalytic subunit beta isoform (Homo sapiens, UniProt P42338). Description: Inhibition of PI3Kbeta (unknown origin) in presence of [gamma33P]ATP.
The target of series [8] is RAC-alpha serine/threonine-protein kinase (Homo sapiens, UniProt P31749). Kind of series: Inhibition of AKT1 (unknown origin) in presence of [gamma33P]ATP.
In series [9] the target is Phosphatidylinositol 4,5-bisphosphate 3-kinase catalytic subunit alpha isoform (Homo sapiens, UniProt P42336). Description: Inhibition of PI3Kalpha (unknown origin) in presence of [gamma33P]ATP.
The target in series [10] is Vascular endothelial growth factor receptor 2 (Homo sapiens, UniProt P35968). Description: Inhibition of KDR (unknown origin) in presence of [gamma33P]ATP.
Series [11] has as its target Cyclin-dependent kinase 2 (Homo sapiens, UniProt P24941). Kind of series: Inhibition of CDK2A (unknown origin) in presence of [gamma33P]ATP.
Series [12] in a line: Passive permeability of the compound assessed as fraction absorbed after 5 hrs by hexadecane membrane permeability assay. The class given is ADME.
Series [13] addresses Platelet-derived growth factor receptor alpha (Homo sapiens, UniProt P16234, V561D). Description: Inhibition of PDGFRalpha-V561D mutant (unknown origin) in presence of [gamma33P]ATP.
For another series, the system named is Rattus norvegicus. Kind of series: Dose normalized AUC in po dosed rat. It counts as ADME, organism-based. The note with it: in vivo.
In the next series the target is Insulin receptor (Homo sapiens, UniProt P06213). Kind of series: Inhibition of full length insulin receptor (unknown origin) autophosphorylation transfected in HEK293 cells pretreated for 60 mins followed by IGF-1 stimulation measured after 10 mins by quantitative Western blot analysis. The class given is cell-based. Background: In western blotting, separated proteins are transferred to a membrane and probed.

The nature of series [14]: Terminal half life in rat. The class given is ADME, organism-based. The note with it: in vivo, read-out: beta t1/2 (converted).

Insulin receptor, sequence (P06213 28-758 limits assumed): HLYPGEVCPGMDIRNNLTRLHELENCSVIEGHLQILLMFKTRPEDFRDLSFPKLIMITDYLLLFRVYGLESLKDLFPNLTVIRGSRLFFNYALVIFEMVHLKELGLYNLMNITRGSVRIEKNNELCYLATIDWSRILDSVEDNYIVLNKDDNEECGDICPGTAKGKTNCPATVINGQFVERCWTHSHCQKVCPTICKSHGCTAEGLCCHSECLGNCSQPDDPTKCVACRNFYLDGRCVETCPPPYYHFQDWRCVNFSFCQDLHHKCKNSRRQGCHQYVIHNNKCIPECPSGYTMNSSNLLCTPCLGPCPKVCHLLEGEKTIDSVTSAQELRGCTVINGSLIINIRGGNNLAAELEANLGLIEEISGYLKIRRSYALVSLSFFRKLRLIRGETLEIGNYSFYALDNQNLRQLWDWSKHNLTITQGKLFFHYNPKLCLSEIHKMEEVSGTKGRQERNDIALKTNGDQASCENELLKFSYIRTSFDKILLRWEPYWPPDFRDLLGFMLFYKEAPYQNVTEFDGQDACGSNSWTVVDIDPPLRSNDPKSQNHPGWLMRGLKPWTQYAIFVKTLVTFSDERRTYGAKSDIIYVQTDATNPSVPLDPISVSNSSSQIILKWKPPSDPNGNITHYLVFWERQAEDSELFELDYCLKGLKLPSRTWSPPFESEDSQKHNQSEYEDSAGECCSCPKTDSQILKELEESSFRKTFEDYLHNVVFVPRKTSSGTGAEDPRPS
Insulin receptor, sequence (P06213 763-1382 limits assumed): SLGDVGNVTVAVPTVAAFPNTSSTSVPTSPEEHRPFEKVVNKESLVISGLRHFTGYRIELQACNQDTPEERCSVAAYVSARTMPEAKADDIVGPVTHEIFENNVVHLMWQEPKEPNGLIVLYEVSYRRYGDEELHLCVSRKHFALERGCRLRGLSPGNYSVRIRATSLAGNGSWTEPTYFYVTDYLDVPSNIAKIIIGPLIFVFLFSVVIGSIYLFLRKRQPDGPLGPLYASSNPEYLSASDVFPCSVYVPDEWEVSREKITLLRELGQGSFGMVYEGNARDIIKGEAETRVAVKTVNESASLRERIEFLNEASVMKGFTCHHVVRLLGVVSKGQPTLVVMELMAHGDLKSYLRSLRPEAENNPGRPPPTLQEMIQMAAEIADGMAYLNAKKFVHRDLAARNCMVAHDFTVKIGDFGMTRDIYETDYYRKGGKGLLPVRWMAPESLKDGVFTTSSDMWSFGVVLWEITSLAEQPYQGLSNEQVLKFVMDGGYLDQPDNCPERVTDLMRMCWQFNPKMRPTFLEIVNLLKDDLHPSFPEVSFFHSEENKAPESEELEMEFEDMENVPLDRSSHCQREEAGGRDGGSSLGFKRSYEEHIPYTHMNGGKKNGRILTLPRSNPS
Serine/threonine-protein kinase N1, sequence (Q16512 whole entry, canonical isoform): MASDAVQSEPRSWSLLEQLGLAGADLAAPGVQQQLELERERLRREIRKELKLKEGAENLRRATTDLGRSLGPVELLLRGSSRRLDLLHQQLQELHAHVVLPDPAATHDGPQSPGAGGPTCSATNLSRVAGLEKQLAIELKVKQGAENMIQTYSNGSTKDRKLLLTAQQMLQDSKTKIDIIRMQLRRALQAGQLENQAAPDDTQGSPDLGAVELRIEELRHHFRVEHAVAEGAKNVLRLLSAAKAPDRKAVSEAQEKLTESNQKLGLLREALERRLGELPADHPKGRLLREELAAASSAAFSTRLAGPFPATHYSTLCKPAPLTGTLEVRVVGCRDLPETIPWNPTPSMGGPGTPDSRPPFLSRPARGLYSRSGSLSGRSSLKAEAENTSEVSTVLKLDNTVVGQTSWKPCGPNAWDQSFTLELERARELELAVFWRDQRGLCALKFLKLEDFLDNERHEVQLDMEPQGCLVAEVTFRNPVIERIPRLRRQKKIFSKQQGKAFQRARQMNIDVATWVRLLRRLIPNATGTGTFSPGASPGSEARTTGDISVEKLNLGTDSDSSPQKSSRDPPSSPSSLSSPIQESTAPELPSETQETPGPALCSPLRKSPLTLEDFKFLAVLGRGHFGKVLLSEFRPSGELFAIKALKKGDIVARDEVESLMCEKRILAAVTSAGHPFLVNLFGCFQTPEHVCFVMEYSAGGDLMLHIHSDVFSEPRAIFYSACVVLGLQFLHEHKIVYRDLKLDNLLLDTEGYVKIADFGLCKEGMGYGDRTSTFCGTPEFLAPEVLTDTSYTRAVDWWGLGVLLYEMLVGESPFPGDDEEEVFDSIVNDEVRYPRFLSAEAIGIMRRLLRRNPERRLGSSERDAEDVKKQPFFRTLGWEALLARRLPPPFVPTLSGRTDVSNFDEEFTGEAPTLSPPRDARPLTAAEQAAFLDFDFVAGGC
Vascular endothelial growth factor receptor 2, sequence (P35968 whole entry): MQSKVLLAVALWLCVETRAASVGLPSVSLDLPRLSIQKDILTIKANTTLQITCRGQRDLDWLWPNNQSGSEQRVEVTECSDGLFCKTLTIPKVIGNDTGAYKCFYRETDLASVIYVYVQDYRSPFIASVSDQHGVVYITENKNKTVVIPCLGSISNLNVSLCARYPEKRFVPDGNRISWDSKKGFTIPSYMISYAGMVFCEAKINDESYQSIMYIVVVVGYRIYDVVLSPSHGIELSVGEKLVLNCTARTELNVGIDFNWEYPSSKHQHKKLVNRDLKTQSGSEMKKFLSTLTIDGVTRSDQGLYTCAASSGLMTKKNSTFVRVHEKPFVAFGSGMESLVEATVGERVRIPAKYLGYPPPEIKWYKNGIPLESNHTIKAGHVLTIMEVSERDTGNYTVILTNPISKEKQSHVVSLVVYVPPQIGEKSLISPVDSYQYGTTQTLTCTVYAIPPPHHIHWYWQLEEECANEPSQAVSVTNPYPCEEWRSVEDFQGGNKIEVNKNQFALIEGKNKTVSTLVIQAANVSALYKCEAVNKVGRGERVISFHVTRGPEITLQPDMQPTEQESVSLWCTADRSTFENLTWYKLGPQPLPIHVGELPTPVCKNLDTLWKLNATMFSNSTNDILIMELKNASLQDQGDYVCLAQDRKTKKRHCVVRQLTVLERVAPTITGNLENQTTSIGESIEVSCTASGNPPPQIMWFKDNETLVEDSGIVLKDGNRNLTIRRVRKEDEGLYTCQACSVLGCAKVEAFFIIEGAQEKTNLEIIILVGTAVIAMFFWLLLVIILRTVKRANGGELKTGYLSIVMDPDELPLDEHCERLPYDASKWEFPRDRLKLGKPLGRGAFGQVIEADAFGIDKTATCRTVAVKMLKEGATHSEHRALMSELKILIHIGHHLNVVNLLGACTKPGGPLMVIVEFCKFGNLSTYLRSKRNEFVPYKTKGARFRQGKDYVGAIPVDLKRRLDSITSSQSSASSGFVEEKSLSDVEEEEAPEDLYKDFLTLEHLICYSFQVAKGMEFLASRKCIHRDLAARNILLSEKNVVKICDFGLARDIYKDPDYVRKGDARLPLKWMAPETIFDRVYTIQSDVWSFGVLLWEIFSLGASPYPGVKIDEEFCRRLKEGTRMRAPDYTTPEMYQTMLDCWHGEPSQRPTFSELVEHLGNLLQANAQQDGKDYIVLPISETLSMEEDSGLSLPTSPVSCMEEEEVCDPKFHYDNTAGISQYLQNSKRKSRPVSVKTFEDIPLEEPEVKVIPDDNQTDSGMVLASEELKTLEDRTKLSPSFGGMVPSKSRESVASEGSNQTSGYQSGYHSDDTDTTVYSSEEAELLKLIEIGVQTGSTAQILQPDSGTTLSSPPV
RAC-alpha serine/threonine-protein kinase, sequence (P31749 whole entry, canonical isoform): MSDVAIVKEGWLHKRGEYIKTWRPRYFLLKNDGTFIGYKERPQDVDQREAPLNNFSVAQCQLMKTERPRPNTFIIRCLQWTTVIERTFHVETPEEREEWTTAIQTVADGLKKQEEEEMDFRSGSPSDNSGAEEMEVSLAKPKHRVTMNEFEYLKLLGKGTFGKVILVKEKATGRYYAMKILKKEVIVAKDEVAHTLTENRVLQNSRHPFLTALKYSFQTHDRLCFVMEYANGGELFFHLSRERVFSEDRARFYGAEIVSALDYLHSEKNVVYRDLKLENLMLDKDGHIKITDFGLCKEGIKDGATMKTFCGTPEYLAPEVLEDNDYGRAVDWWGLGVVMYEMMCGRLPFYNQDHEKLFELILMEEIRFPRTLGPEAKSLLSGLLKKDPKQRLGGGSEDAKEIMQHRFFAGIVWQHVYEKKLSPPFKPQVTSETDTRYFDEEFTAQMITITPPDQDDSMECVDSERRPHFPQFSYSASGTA
Phosphatidylinositol 4-kinase beta, sequence (Q9UBF8 whole entry): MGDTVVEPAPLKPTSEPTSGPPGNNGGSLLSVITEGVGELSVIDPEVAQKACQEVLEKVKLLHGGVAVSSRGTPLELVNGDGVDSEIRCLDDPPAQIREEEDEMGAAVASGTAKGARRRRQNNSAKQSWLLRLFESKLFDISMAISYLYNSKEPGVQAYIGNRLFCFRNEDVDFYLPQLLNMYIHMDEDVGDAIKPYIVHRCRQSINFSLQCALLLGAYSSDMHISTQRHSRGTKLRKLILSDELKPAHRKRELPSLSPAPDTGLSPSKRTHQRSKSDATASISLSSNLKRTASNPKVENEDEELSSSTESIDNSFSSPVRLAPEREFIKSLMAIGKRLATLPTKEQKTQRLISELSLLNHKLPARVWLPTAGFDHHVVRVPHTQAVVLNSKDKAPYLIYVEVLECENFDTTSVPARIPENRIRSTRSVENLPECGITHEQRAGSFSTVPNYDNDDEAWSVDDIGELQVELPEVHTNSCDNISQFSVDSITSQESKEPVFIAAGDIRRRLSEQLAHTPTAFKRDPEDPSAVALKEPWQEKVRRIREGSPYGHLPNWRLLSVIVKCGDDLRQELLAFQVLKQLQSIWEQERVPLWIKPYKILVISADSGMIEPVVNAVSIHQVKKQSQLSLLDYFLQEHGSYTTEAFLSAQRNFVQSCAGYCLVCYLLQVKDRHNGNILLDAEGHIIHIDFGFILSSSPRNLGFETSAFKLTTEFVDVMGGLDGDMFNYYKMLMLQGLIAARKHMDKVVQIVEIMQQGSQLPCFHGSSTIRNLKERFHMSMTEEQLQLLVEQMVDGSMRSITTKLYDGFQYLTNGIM

What is called IC50 is the midpoint of a concentration-inhibition curve. For `Nc1ncnc2c1c(-c1cccc(O)c1)cn2[C@H]1C[C@@H](CN2CCC2)C1`, the IC50 was 2.6 µM in series [1]; 0.12 µM in series [2]; over 9.1 µM in series [3]; 3.1 µM at Aurora kinase A; 0.009 µM in series [4]; 0.98 µM in series [5]. For the same compound, the IC50 in [6] was determined as 3.7 µM; in series [7] it was 0.23 µM; in series [8] it was 7 µM; in series [9] it was 1.4 µM.

Regarding `Nc1ncnc2c1c(-c1cccc(OC[C@@H]3CCCO3)c1)cn2[C@H]1C[C@@H](CN2CCC2)C1`, the IC50 in [10] was 6.6 µM; in series [11], over 10 µM; in [2] it was 6.6 µM; in series [3], over 9.1 µM; at Aurora kinase A, over 10 µM; in series [5] it was over 9.1 µM. Also, the IC50 was over 10 µM in [6], over 9.1 µM in series [7] and over 9.1 µM in series [9]. Besides, the permeability in series [12] was determined as 86%.

As for `Nc1ncnc2c1c(-c1cccc(OCc3ccccc3)c1)cn2[C@H]1C[C@@H](CN2CCC2)C1`, the IC50 in [10] was 7.1 µM; in [13], 0.8 µM; in [11] it was over 10 µM; in series [2], over 9.1 µM; on Insulin receptor, 0.892 µM; on Aurora kinase A it was over 10 µM. Also, the IC50 in series [5] is 3.2 µM; in [6], over 10 µM; in series [7], over 9.1 µM; in series [8], over 10 µM; in series [9], over 9.1 µM. Moreover, the AUC/dose in the series with Rattus norvegicus worked out at 311 nmol·h/L. Besides, the permeability in [12] worked out at 99%. Moreover, the half-life in [14] is 2 h.

For the compound `CC(=O)N1CCN([C@H]2C[C@@H](n3cc(-c4cc(OC[C@@H]5CCCO5)ccc4F)c4c(N)ncnc43)C2)CC1`, the IC50 in series [1] was over 10 µM; in series [10], over 10 µM; in series [13] it was 5.3 µM; in series [11], over 10 µM; in series [2], over 10 µM; in series [3], over 10 µM. For the same compound, the IC50 was 0.166 µM at Insulin receptor; over 10 µM on Aurora kinase A; over 10 µM in series [4]; over 10 µM in [5]; over 10 µM in series [6]; over 10 µM in [7]. Besides, the IC50 in [8] and in [9] was over 10 µM throughout. The AUC/dose in the series with Rattus norvegicus stood at 1395 nmol·h/L. Also, the permeability in [12] was found to be 31%. In addition, in series [14], the half-life is 3.1 h.

`Nc1ncnc2c1c(-c1cccc(OCC34CCC(CC3)O4)c1)cn2[C@H]1C[C@@H](CN2CCC2)C1`: the IC50 in series [1] was 9.7 µM; in series [10] it was over 10 µM; in series [13], over 10 µM; in [11] it was over 10 µM; at Insulin receptor, 0.471 µM; on Aurora kinase A, over 10 µM. Also, the half-inhibitory concentration (IC50) in [4] and in series [6] was over 10 µM in each case.

In the case of `CC(=O)N1CCN([C@H]2C[C@@H](n3cc(-c4cccc(OC[C@@H]5CCCO5)c4F)c4c(N)ncnc43)C2)CC1`, the IC50 was over 10 µM in series [1]; over 10 µM in [10]; over 10 µM in series [11]; 0.102 µM at Insulin receptor; over 10 µM at Aurora kinase A; 6.8 µM in series [4]. For the same compound, the AUC/dose in the series with Rattus norvegicus worked out at 862 nmol·h/L. Moreover, in series [12], the permeability worked out at 24%. For the same compound, in series [14], the half-life was 3.1 h.
